Measurements taken from patent publication US20140113898A1, “BISARYLSULFONE AND DIALKYLARYLSULFONE COMPOUNDS AS CALCIUM CHANNEL BLOCKERS” (Zalicus Pharmaceuticals Ltd., priority 2010, published 2014).
Where two headings read alike, the source gives them in different places.

Target: T1, CaV2.2 (Homo sapiens, UniProt Q00975)
T1 construct: expressed in transfected cells; host or cells: unnamed doxycycline-inducible cell line
Assay: High-throughput CaV2.2/Kir2.3 FLIPR fluorescent assay
Type: cell-based
Conditions: Fluo-4 FLIPR, closed or inactivated state not stated
Protocol: Cells were plated in 384-well, clear-bottom, black-walled, poly-D-lysine coated plates (Becton Dickinson, Franklin Lake, N.J.) 2 days prior to use in the FLIPR assay. 100 μL of cells (1.4×10^6 cell/mL) containing doxycyline (Sigma-Aldrich, 1.5 μg/mL; to induce channel expression) were added to each well using a Multidrop (Thermo Scientific, Waltham, Mass.) and were maintained in 5% CO2 incubator at 37° C. On the morning of the assay, cells were transferred to a 5% CO2 incubator at 29° C.
Cells were washed with a wash buffer containing (in mM): 118 NaCl, 18.4 HEPES, 11.7 D-glucose, 2 CaCl2, 0.5 MgSO4, 4.7 KCl, 1.2 KH2PO4, pH adjusted to 7.2 with NaOH. 4.4 μM of the fluorescent indicator dye, Fluo-4 (Invitrogen), prepared in pluronic acid (Sigma-Aldrich), was loaded into the wells and incubated for 45 minutes at 29° C. in 5% CO2. Cells were then rinsed with either a 2 mM KCl closed-state buffer (in mM: 138.5 NaCl, 10 HEPES, 10 D-glucose, 1 CaCl2, and 2 KCl, with the pH adjusted to 7.4 with NaOH) when performing the closed-state assay or 12.5 mM KCl inactivated-state buffer (in mM: 128 NaCl, 10 HEPES, 10 D-glucose, 1 CaCl2, and 12.5 mM KCl, with the pH adjusted to 7.4 with NaOH) when performing the inactivated-state assay.
Calcium entry was evoked with an addition of 130 mM KCl stimulation buffer (in mM: 10.5 NaCl, 10 HEPES, 10 D-glucose, 1 CaCl2, and 130 KCl, with the pH adjusted to 7.4 with NaOH) for both the closed-state or inactivated-state assay. A change in the Fluo-4 fluorescence signal was assessed using FLIPR^TETRA™ instrument (Molecular Devices, Sunnyvale, Calif.) for 3 minutes following the elevation of extracellular KCl using an illumination wavelength of 470-495 nm with emissions recorded at 515-575 nm.
Concentration-dependent response curves were obtained by comparing the fluorescence signal in the presence of compound and fitted with a logistic function (1) to obtain the concentration that inhibited 50% (IC50) of the RLU signal using OriginPro v.7.5 software (OriginLab, Northampton, Mass.).
To assess the quality of the FLIPR assays the Z-factor (2) was used to quantify the suitability of the assay conditions using the following equation: […]
Data are expressed as mean and standard deviation (SD).

[1] = Table 5, read-out: FLIPR data CaV2.2
[2] = Table 4, read-out: FLIPR data CaV2.2

T1 sequence (Q00975 whole entry): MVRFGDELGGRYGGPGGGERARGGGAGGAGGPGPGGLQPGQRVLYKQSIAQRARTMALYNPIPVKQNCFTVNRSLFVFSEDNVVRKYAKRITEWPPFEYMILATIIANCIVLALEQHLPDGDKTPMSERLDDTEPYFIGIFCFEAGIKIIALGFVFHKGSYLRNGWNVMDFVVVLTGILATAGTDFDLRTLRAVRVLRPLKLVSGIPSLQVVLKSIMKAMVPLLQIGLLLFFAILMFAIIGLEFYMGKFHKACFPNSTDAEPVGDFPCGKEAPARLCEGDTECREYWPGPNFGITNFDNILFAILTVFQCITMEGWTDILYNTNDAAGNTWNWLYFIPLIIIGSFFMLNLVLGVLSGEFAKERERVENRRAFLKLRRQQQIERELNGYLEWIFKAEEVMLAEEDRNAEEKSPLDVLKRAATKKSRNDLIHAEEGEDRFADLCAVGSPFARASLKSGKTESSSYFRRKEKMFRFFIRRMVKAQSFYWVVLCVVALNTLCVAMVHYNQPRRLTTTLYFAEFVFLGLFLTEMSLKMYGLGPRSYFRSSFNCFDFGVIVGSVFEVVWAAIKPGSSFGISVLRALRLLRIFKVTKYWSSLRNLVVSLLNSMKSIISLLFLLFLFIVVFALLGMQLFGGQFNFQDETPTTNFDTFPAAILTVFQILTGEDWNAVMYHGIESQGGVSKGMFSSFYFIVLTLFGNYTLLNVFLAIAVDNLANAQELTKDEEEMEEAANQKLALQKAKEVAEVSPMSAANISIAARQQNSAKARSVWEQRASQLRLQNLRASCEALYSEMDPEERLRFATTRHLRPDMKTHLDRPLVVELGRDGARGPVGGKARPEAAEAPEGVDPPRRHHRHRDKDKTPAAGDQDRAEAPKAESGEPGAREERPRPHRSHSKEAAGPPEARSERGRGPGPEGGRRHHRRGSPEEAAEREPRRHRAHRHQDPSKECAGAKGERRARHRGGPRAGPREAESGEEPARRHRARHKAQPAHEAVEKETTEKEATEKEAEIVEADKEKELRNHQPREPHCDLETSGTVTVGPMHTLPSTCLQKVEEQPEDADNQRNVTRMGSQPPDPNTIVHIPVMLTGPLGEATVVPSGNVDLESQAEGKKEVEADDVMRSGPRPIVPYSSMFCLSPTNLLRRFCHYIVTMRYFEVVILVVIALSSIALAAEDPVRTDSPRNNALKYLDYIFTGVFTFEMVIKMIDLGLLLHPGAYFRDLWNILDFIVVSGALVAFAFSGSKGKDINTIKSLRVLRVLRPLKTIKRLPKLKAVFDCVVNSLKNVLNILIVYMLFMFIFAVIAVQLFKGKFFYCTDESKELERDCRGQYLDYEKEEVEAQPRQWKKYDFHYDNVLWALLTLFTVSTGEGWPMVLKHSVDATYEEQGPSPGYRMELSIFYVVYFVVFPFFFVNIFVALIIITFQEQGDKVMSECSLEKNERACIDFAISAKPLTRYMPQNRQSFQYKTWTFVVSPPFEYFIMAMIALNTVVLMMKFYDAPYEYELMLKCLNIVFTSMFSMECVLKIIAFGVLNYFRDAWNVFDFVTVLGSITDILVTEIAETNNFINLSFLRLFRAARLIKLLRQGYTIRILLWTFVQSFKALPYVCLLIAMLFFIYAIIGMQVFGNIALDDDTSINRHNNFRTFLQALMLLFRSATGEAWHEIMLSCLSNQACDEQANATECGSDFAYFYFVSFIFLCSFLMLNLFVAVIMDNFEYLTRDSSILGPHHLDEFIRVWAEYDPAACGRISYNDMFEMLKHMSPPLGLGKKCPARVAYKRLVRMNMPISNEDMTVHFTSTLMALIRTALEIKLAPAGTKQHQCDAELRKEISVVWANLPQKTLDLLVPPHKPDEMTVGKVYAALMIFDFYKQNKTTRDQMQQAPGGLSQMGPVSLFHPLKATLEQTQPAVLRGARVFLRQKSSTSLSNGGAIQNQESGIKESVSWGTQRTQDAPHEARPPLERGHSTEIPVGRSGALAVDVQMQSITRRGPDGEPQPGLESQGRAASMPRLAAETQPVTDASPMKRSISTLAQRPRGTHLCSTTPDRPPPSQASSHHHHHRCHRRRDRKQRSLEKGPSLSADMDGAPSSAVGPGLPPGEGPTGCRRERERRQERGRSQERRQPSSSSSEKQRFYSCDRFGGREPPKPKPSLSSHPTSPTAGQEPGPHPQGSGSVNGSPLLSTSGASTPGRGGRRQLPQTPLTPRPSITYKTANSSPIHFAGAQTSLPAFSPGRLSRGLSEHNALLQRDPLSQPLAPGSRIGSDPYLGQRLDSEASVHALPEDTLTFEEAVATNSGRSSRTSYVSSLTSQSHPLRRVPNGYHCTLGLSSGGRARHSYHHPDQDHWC
T1 sequence (P54284 whole entry partner): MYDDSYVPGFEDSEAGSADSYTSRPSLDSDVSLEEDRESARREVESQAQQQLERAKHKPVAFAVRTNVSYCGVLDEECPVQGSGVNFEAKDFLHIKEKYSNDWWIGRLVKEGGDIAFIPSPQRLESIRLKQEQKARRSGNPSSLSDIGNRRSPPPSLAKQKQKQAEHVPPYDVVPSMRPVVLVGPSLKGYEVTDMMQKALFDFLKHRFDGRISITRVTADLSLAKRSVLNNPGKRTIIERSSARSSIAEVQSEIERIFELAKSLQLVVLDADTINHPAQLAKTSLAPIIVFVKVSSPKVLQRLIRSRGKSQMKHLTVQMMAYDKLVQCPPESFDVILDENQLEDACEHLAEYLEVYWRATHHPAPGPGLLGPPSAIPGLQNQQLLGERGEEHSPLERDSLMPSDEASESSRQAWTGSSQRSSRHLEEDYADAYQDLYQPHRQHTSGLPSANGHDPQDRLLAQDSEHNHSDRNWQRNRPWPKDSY
T1 sequence (P54289 25-946 partner limits assumed): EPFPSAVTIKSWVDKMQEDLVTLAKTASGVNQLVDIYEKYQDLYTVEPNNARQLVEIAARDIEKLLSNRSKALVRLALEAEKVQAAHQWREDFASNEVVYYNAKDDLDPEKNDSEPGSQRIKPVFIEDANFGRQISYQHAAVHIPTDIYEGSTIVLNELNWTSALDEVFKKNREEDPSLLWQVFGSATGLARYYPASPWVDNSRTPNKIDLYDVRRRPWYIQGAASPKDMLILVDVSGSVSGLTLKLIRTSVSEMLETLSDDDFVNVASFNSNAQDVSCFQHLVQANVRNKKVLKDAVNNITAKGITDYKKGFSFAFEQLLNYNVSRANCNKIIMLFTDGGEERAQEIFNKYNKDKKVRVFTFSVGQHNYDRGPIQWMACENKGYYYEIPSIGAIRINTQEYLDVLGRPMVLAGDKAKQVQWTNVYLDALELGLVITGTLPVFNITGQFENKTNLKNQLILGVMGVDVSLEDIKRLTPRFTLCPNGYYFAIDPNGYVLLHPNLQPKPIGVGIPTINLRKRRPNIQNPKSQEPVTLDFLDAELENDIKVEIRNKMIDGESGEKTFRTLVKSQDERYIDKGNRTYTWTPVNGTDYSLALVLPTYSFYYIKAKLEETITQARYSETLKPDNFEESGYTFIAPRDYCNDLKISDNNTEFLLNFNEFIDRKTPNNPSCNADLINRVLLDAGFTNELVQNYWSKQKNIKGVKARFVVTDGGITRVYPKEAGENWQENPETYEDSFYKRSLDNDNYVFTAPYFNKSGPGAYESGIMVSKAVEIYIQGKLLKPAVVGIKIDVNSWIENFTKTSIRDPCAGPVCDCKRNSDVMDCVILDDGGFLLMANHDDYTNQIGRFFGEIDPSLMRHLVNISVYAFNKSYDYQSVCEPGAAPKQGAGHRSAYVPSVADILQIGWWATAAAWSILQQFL
T1 sequence (P54289 947-1103 partner limits assumed): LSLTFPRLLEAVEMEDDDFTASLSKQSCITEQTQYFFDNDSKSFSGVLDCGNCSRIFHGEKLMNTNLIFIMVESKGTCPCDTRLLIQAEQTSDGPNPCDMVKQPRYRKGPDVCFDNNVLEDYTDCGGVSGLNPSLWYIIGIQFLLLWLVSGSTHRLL

Row | Compound | IC50 [1] [nM] | IC50 [2] [nM] | also measured
1 | CC(C)(CCNC(=O)CC1CCNCC1)S(=O)(=O)c1cccc(C(F)(F)F)c1 [Compound 206, N-(3-methyl-3-((3-(trifluoromethyl)phenyl)sulfonyl)butyl)-2-(piperidin-4-yl)acetamide] | 10000 |  | 
2 | CC(C)(CCNC(=O)[C@@H]1CCCN1)S(=O)(=O)c1cccc(C(F)(F)F)c1 [Compound 219, (S)-N-(3-methyl-3-((3-(trifluoromethyl)phenyl)sulfonyl)butyl)pyrrolidine-2-carboxamide] | 3230 |  | 
3 | O=C(NCc1ccccc1S(=O)(=O)c1cccc(C(F)(F)F)c1)c1ccnc(C(F)(F)F)n1 [Compound 46, 2-(trifluoromethyl)-N-(2-((3-(trifluoromethyl)phenyl)sulfonyl)benzyl)pyrimidine-4-carboxamide] |  | 1740 | 
4 | CC(C)(CN1Cc2nc(C(F)(F)F)ccc2C1=O)S(=O)(=O)c1cccc(C(F)(F)F)c1 [Compound 182, 6-(2-methyl-2-((3-(trifluoromethyl)phenyl)sulfonyl)propyl)-2-(trifluoromethyl)-6,7-dihydro-5H-pyrrolo[3,4-b]pyridin-5-one] | 10000 |  | 
5 | CC(C)(CCNC(=O)[C@@H](N)c1ccccc1)S(=O)(=O)c1cccc(C(F)(F)F)c1 [Compound 205, (S)-2-amino-N-(3-methyl-3-((3-(trifluoromethyl)phenyl)sulfonyl)butyl)-2-phenylacetamide] | 1480 |  | 
6 | COc1cc(CCNC(=O)C(C)(C)S(=O)(=O)c2cccc(C(F)(F)F)c2)ccc1O [Compound 139, N-(4-hydroxy-3-methoxyphenethyl)-2-methyl-2-((3-(trifluoromethyl)phenyl)sulfonyl)propanamide] | 1220 |  | 
7 | CC(C)(CCNC(=O)[C@H]1CCCC[C@@H]1N)S(=O)(=O)c1cccc(C(F)(F)F)c1 [Compound 208, (1S,2S)-2-amino-N-(3-methyl-3-((3-(trifluoromethyl)phenyl)sulfonyl)butyl)cyclohexanecarboxamide] | 1750 |  | 
8 | O=C(NCc1ccc(S(=O)(=O)c2cccc(C(F)(F)F)c2)cn1)c1ccnn1CC(F)(F)F [Compound 100, 1-(2,2,2-trifluoroethyl)-N-((5-((3-(trifluoromethyl)phenyl)sulfonyl)pyridin-2-yl)methyl)-1H-pyrazole-5-carboxamide] |  | 1320 | 
9 | CC(C)(CCNC(=O)c1cn2cc(C(F)(F)F)ccc2n1)S(=O)(=O)c1cc(F)cc(C(F)(F)F)c1 [Compound 214, N-(3-((3-fluoro-5-(trifluoromethyl)phenyl)sulfonyl)-3-methylbutyl)-6-(trifluoromethyl)imidazo[1,2-a]pyridine-2-carboxamide] | 1310 |  | 
10 | CC(C)(CNC(=O)c1ccc(C(F)(F)F)nc1S(C)(=O)=O)S(=O)(=O)c1cccc(C(F)(F)F)c1 [Compound 155, N-(2-methyl-2-((3-(trifluoromethyl)phenyl)sulfonyl)propyl)-2-(methylsulfonyl)-6-(trifluoromethyl)nicotinamide] | 1360 |  | 
11 | CC(C)(CCNC(=O)[C@@H]1CCCCN1)S(=O)(=O)c1cccc(C(F)(F)F)c1 [Compound 196, (S)-N-(3-methyl-3-((3-(trifluoromethyl)phenyl)sulfonyl)butyl)piperidine-2-carboxamide] | 3510 |  | 
12 | CC(C)(CNC(=O)c1cnc(C(F)(F)F)nc1)S(=O)(=O)c1cccc(C(F)(F)F)c1 [Compound 164, N-(2-methyl-2-((3-(trifluoromethyl)phenyl)sulfonyl)propyl)-2-(trifluoromethyl)pyrimidine-5-carboxamide] | 4660 |  | 
13 | CC(C)(CNC(=O)c1ccc(S(C)(=O)=O)cc1Cl)S(=O)(=O)c1cccc(C(F)(F)F)c1 [Compound 158, 2-chloro-N-(2-methyl-2-((3-(trifluoromethyl)phenyl)sulfonyl)propyl)-4-(methylsulfonyl)benzamide] | 2920 |  | 
14 | CC(C)C[C@H](CN)CC(=O)NCCC(C)(C)S(=O)(=O)c1cccc(C(F)(F)F)c1 [Compound 224, (S)-3-(aminomethyl)-5-methyl-N-(3-methyl-3-((3-(trifluoromethyl)phenyl)sulfonyl)butyl)hexanamide] |  |  | IC50 (FLIPR data CaV2.2 (nM), Table 5): 470 nM
15 | CS(=O)(=O)c1nc(C(F)(F)F)ccc1C(=O)NCc1cc(S(=O)(=O)c2cccc(C(F)(F)F)c2)ccn1 [Compound 110, 2-(methylsulfonyl)-6-(trifluoromethyl)-N-((4-((3-(trifluoromethyl)phenyl)sulfonyl)pyridin-2-yl)methyl)nicotinamide] |  | 2210 | 
16 | CC(C)(CCNC(=O)C1(N)CCOCC1)S(=O)(=O)c1cccc(C(F)(F)F)c1 [Compound 197, 4-amino-N-(3-methyl-3-((3-(trifluoromethyl)phenyl)sulfonyl)butyl)tetrahydro-2H-pyran-4-carboxamide] | 10000 |  | 
17 | Cc1nc(C(F)(F)F)ccc1C(=O)NCC(C)(C)S(=O)(=O)c1cccc(C(F)(F)F)c1 [Compound 172, 2-methyl-N-(2-methyl-2-((3-(trifluoromethyl)phenyl)sulfonyl)propyl)-6-(trifluoromethyl)nicotinamide] | 2170 |  | 
18 | O=C(NCc1ccccc1S(=O)(=O)c1cccc(C(F)(F)F)c1)c1ccnc(C(F)(F)F)c1 [Compound 50, 2-(trifluoromethyl)-N-(2-((3-(trifluoromethyl)phenyl)sulfonyl)benzyl)isonicotinamide] |  | 1210 | 
19 | O=C(NCc1cc(S(=O)(=O)c2cccc(C(F)(F)F)c2)ccn1)c1ccnn1CC(F)(F)F [Compound 112, 1-(2,2,2-trifluoroethyl)-N-((4-((3-(trifluoromethyl)phenyl)sulfonyl)pyridin-2-yl)methyl)-1H-pyrazole-5-carboxamide] |  | 1030 | 
20 | COc1cc(C(=O)NCc2ccc(S(=O)(=O)c3cccc(C(F)(F)F)c3)cn2)cc(Cl)n1 [Compound 101, 2-chloro-6-methoxy-N-((5-((3-(trifluoromethyl)phenyl)sulfonyl)pyridin-2-yl)methyl)isonicotinamide] |  | 1460 | 

The next lines start with results.

Row | IC50 [1] [nM] | IC50 [2] [nM] | Compound | also measured
21 |  | 2300 | O=C(NCc1ccc(S(=O)(=O)c2cccc(C(F)(F)F)c2)cc1)[C@@H]1C[C@@H](F)CN1 [Compound 68, (2S,4R)-4-fluoro-N-(4-((3-(trifluoromethyl)phenyl)sulfonyl)benzyl)pyrrolidine-2-carboxamide] | 
22 | 8930 |  | CC(C)(CCNC(=O)[C@@H]1C[C@@H](F)CN1)S(=O)(=O)c1cccc(C(F)(F)F)c1 [Compound 216, (2S,4R)-4-fluoro-N-(3-methyl-3-((3-(trifluoromethyl)phenyl)sulfonyl)butyl)pyrrolidine-2-carboxamide] | 
23 | 3310 |  | CO[C@H]1CN[C@@H](C(=O)NCCC(C)(C)S(=O)(=O)c2cccc(C(F)(F)F)c2)C1 [Compound 199, (2R,4R)-4-methoxy-N-(3-methyl-3-((3-(trifluoromethyl)phenyl)sulfonyl)butyl)pyrrolidine-2-carboxamide] | 
24 |  | 5630 | NC1(C(=O)NCc2ccc(S(=O)(=O)c3cccc(C(F)(F)F)c3)cc2)CC1 [Compound 65, 1-amino-N-(4-((3-(trifluoromethyl)phenyl)sulfonyl)benzyl)cyclopropanecarboxamide] | 
25 |  | 1000 | O=C(NCc1ccc(S(=O)(=O)c2cccc(C(F)(F)F)c2)cc1)C1CCCCN1 (centres unmarked) [Compound 59, N-(4-((3-(trifluoromethyl)phenyl)sulfonyl)benzyl)piperidine-2-carboxamide] | 
26 |  | 1920 | O=C(NCc1ccc(S(=O)(=O)c2cccc(C(F)(F)F)c2)cc1)[C@@H]1CCCN1 [Compound 73, (S)-N-(4-((3-(trifluoromethyl)phenyl)sulfonyl)benzyl)pyrrolidine-2-carboxamide] | 
27 |  | 9140 | O=C(NCc1ccccc1S(=O)(=O)c1cccc(C(F)(F)F)c1)[C@@H]1C[C@@H](F)CN1 [Compound 69, (2S,4R)-4-fluoro-N-(2-((3-(trifluoromethyl)phenyl)sulfonyl)benzyl)pyrrolidine-2-carboxamide] | 
28 |  | 620 | CO[C@H]1CN[C@@H](C(=O)NCc2ccc(S(=O)(=O)c3cccc(C(F)(F)F)c3)cc2)C1 [Compound 62, (2R,4R)-4-methoxy-N-(4-((3-(trifluoromethyl)phenyl)sulfonyl)benzyl)pyrrolidine-2-carboxamide] | 
29 |  | 4740 | O=C(NCc1ccc(S(=O)(=O)c2cccc(C(F)(F)F)c2)cc1)[C@@H]1C[C@H](F)CN1 [Compound 70, (2S,4S)-4-fluoro-N-(4-((3-(trifluoromethyl)phenyl)sulfonyl)benzyl)pyrrolidine-2-carboxamide] | 
